Here are results for five compounds from paper PMC6105598, “Targeting protein-protein interactions for therapeutic discovery via FRET-based high-throughput screening in living cells” (Scientific Reports, 2018).

The target of test [1] is T1, skeletal SR (SERCA1a only) (Oryctolagus cuniculus, UniProt P04191).
T1 construct: Skeletal muscle SR membrane vesicles were isolated from longissimus dorsi obtained from New Zealand white rabbits; from tissue; host or cells: rabbit longissimus dorsi skeletal muscle, SR membrane vesicles
T1 sequence (P04191 1-994 isoform P04191-2): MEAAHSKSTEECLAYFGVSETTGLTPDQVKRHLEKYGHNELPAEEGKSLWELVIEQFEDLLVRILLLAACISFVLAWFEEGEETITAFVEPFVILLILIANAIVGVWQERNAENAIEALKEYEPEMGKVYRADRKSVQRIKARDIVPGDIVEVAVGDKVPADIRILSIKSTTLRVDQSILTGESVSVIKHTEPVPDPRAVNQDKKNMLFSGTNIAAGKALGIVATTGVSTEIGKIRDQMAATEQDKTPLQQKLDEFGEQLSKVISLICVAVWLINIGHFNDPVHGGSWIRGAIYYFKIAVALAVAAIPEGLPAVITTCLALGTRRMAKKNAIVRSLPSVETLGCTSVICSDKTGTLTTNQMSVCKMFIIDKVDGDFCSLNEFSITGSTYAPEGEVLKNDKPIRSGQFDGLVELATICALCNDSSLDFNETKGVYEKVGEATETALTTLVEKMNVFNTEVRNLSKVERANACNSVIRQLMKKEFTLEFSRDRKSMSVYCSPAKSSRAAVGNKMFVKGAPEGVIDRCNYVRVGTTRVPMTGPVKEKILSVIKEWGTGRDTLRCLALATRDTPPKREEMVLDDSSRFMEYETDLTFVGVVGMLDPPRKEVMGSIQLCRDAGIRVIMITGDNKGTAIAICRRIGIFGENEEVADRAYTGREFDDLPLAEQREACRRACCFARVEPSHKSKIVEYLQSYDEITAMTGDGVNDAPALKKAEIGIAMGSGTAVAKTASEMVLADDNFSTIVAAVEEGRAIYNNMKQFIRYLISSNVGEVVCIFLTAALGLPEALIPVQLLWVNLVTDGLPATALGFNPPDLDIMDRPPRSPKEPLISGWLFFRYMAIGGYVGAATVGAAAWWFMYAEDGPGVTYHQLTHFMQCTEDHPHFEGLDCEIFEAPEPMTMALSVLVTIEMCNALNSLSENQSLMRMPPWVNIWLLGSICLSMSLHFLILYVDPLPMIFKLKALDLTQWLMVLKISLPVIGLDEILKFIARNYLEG
Description: Ca-ATPase activity of skeletal SR (SSR), NADH-linked enzyme-coupled assay. In kind it is biochemical, rabbit. The note with it: for EC50 / Vmax @ 30 µM / ΔVmax @ 30 µM: SSR; for Vmax @ 30 µM / ΔVmax @ 30 µM: 30 µM compound; for ΔVmax @ 30 µM: relative to DMSO control. The protocol:
To further examine the functional effects of Hit compounds, Ca-ATPase assays were performed on both skeletal SR (SERCA1a only) and cardiac SR (SERCA2a + PLB) at a series of Ca concentrations ranging from pCa 5 to 8.
(§1) Skeletal muscle SR membrane vesicles were isolated from longissimus dorsi obtained from New Zealand white rabbits, as previously described. Cardiac SR membrane vesicles were isolated from ventricular myocardium obtained from fresh pig hearts. All experimental protocols were reviewed and approved by University of Minnesota’s Institutional Animal Care and Use Committee, an Association for Assessment and Accreditation of Laboratory Animal Care institution.
(§2) An enzyme-coupled, NADH-linked ATPase assay was used to measure SERCA ATPase activity in 96-well microplates. Each well contained 0.8 μg (skeletal) or 2 μg (cardiac) of SR vesicles adjusted for the different SERCA contents of skeletal and cardiac SR, 50 mM MOPS (pH 7.0), 100 mM KCl, 5 mM MgCl2, 1 mM EGTA, 0.2 mM NADH, 1 mM phosphoenol pyruvate, 10 IU/mL of pyruvate kinase, 10 IU/mL of lactate dehydrogenase, 3.5 μg/mL of the Ca ionophore A23187, and CaCl2 added to set free [Ca] to the desired values. The assay was started upon the addition of ATP at a final concentration of 5 mM and read in a SpectraMax Plus microplate spectrophotometer rom Molecular Devices (Sunnyvale, CA).

In test [2] the test system is skeletal muscle SR Ca-ATPase. Further details: method as in PMID 12022919. The note with it: high concentrations (50 µM); cited from earlier work.
Test [3] deals with T2, SERCA2a-PLB complex (GFP-SERCA2a / RFP-PLB in HEK293 cells) (Homo sapiens, UniProt P16615+P26678, C36A/C41F/C46A). Description: FRET of SERCA2a-PLB biosensor in saponin-permeabilized cells at low and high Ca. The settings on record: 100 nM Tg, low Ca (100 nM) vs high Ca (10 µM).
T2 sequence (P16615 1-997 isoform P16615-2, stated change not applied): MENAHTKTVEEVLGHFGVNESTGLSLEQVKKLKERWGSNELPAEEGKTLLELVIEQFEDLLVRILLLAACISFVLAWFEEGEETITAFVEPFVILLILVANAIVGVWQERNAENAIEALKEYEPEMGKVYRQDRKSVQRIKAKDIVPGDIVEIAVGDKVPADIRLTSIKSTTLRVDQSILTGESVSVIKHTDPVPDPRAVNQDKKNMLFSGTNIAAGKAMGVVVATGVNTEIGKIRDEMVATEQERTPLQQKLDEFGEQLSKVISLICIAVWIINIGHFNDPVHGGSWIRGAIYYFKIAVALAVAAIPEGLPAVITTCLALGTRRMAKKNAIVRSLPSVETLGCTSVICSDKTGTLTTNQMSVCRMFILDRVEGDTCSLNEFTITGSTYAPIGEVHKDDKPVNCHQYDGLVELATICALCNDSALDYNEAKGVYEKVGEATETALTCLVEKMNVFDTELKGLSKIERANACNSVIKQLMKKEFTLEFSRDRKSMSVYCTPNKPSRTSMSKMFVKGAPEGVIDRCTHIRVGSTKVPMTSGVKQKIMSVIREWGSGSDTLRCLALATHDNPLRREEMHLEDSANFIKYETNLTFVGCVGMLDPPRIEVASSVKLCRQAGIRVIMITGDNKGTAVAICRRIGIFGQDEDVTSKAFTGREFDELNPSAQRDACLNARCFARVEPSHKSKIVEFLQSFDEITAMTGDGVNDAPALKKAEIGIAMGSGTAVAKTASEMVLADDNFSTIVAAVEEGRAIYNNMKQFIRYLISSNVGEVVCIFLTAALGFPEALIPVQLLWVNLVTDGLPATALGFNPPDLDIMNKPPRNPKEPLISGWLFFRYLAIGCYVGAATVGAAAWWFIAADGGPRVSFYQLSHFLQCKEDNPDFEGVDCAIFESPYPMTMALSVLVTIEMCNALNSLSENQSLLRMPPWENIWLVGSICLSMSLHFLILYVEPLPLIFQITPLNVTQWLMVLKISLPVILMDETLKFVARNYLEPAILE
T2 sequence (P26678 whole entry C36A/C41F/C46A, the tested form may be a part): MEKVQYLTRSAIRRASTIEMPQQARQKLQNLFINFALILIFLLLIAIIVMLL
Description: To test this, we quantified FRET changes in permeabilized cells under conditions of low Ca (100 nM) and high Ca (10 µM).
(a) Left- FLT measurements in saponin-permeabilized cells under conditions of low Ca (100 nM) and high Ca (10 µM), and in the absence and presence (100 nM) of the SERCA inhibitor thapsigargin (Tg). […] Error bars indicate SD (n = 3). Statistical differences determined using 1-way ANOVA followed by Tukey post hoc analysis (more detailed analysis is provided in Supplemental Table 4). *P ≤ 0.01 and N.S. indicating P ≥ 0.05.
To generate SERCA2a-PLB biosensor, HEK293 cells were transiently transfected using Lipofectamine 3000 with GFP-SERCA2a and RFP-PLB in a 1:7 molar ratio for the screen. Cells were then assayed 48 hours post-transfection. For cell permeabilization experiments, cells were trypsinized (TrypLE, Thermo Fischer Scientific), PBS-washed (three times), and resuspended in a homogenization buffer (20 mM MOPS, 0.5 MgCl2, protease inhibitor cocktail (Roche, Basel, Switzerland)). Saponin (Sigma-Aldrich) was added to a final concentration of 10 µg/mL and cells were incubated for 4 min at 37 °C water bath. Saponin was removed by centrifugation for 3 min, cells were washed twice with homogenization buffer, and resuspended in homogenization buffer.
The target in test [4] is GFP-SERCA2a (eGFP fused to the N-terminus of human cardiac sarcoplasmic reticulum Ca-ATPase SERCA2a) (human) (UniProt P16615). Kind of test: FRET or BRET; time-resolved FRET (donor fluorescence lifetime, plate reader) in live HEK293 cells co-expressing GFP-SERCA2a (donor) and increasing amounts of RFP-PLB (acceptor); value at saturating acceptor.
Sequence of GFP-SERCA2a (eGFP fused to the N-terminus of human cardiac sarcoplasmic reticulum Ca-ATPase SERCA2a) (human) (P16615 other isoform, or with tags, fused parts or gaps): as the sequence (P16615 1-997 isoform P16615-2, stated change not applied) above
The target is the same in test [5]. Kind of test: FRET or BRET; time-resolved FRET (donor fluorescence lifetime) in saponin-permeabilized HEK293 cells, low Ca (100 nM); also tested with 100 nM thapsigargin.
Test [6] shares this target. Kind of test: FRET or BRET; time-resolved FRET (donor fluorescence lifetime) in saponin-permeabilized HEK293 cells, high Ca (10 µM); also tested with 100 nM thapsigargin, which prevents the Ca-dependent decrease in FRET.
Test [7] addresses T2, SERCA2a-PLB complex (GFP-SERCA2a / RFP-PLB in HEK293 cells). Kind of test: SERCA2a-PLB TR-FRET (fluorescence lifetime) biosensor assay in living cells. The test is classed as cell-based. Further details: expressed in transfected cells; host or cells: HEK293. The settings on record: for ΔFLT: compound incubation for 20 min, uncertainty (1 S.D.) 11 ps; for EC50: concentration-response 0.01-100 µM compound, live HEK293 cells.

In test [8] the target is T3, cardiac SR (SERCA2a + PLB) (Sus scrofa, UniProt P11607).
T3 construct: Cardiac SR membrane vesicles were isolated from ventricular myocardium obtained from fresh pig hearts; from tissue; host or cells: pig ventricular myocardium, SR membrane vesicles
T3 sequence (P11607 1-997 isoform P11607-2): as the sequence (P16615 1-997 isoform P16615-2, stated change not applied) above, with R371K, N403K, S538P, L570M, H576N, D667E, A713S, S865T, I889V, V963L counted along it
T3 sequence (P61013 whole entry partner): as the sequence (P26678 whole entry C36A/C41F/C46A, the tested form may be a part) above, with E2D, K27N, A36C, F41C, A46C counted along it
Description: Ca-ATPase activity of cardiac SR (CSR), NADH-linked enzyme-coupled assay. The test is classed as biochemical, pig. The note with it: CSR; for Vmax @ 30 µM / ΔVmax @ 30 µM: 30 µM compound; for ΔVmax @ 30 µM: relative to DMSO control; for EC50: read-out: EC50 Vmax. The protocol:
To characterize the relationship between the structural readout (FRET) and the functional effects, in vitro Ca-ATPase assays were performed on cardiac SR (which contains both SERCA2a and PLB). […] To further examine the functional effects of Hit compounds, Ca-ATPase assays were performed on both skeletal SR (SERCA1a only) and cardiac SR (SERCA2a + PLB) at a series of Ca concentrations ranging from pCa 5 to 8.
as §1, §2

Sequence of RFP-PLB (tagRFP fused to the N-terminus of a monomeric mutant of human phospholamban) (P26678 whole entry C36A/C46A, change not shown, the tested form may be a part): as the sequence (P26678 whole entry C36A/C41F/C46A, the tested form may be a part) above, with F41C counted along it

For the compound Ivermectin, in test [1], a half-maximal response (EC50) required 5.75 µM, the “Vmax @ 30 µM” value came to 0.32 i.u and the “ΔVmax @ 30 µM” value is -87.6%. In test [1] (listed as ivermectin), this compound came in with an EC50 of 5.8 µM. The “decrease of Vmax” value in test [1] (skeletal SR) amounted to 88%. Further, the Ca-ATPase activity inhibited in test [2] was 90%.

On to `C/C=C(/C)C(=O)O[C@H]1C(C)=C2[C@H]([C@@H]1OC(=O)CCCCCCC)[C@@](C)(OC(C)=O)C[C@H](OC(=O)CCC)[C@@]1(O)[C@H]2OC(=O)[C@@]1(C)O` [thapsigargin], for which the “effect on Ca-dependent decrease in FRET” value in test [3] is “prevents the Ca-dependent decreases in FRET”.

“RFP-PLB (tagRFP fused to the N-terminus of a monomeric mutant of human phospholamban) (from UniProt P26678 1-52) (natural protein)”: the maximum FRET efficiency E in test [4] stood at 0.103. Further, the FRET efficiency E in test [5] amounted to 0.14; in test [6], 0.11.

Consider `Oc1ccc(/C=C/c2ccc(/C=C/c3ccc(O)cc3)c(Br)c2)cc1` [K114], for which the results for the EC50 in test [1], in test [7] and in test [8] were 3.53 µM, 41.3 µM and 6.7 µM, respectively. The “Vmax @ 30 µM” value in test [1] is 0.32 i.u; in test [8], 0.11 i.u. Besides, the “ΔVmax @ 30 µM” value was -87.9% in test [1] and -83.7% in test [8]. Also, the values for the ΔFLT in test [7] (final concentration 10 µM) and in test [7] (final concentration 100 µM) were -16 ps and -102 ps, respectively.

As for `CCCCCCCCCCCCCCCC(=O)OC(CC(=O)O)C[N+](C)(C)C.[Cl-]` (racemic) [Palmitoyl-DL-carnitine chloride], the EC50 came out at 12.2 µM in test [1], 24.9 µM in test [7] and 16.1 µM in test [8]. Also, the “Vmax @ 30 µM” value in test [1] is given as 0.57 i.u; in test [8], 0.22 i.u. Further, the “ΔVmax @ 30 µM” value was -78.1% in test [1] and -67.1% in test [8]. For the same compound, the ΔFLT in test [7] (final concentration 10 µM) was 50 ps; in test [7] (final concentration 100 µM) it was 189 ps.
